In patent publication US12398121B2 (Nuvation Bio Inc., priority 2018, dated 2025):

Assays:
Type in all cases: cell-based
MCF-7 cells = test: Cell proliferation assay (CellTiter Glo), MCF-7; conditions: Homo sapiens, MCF7, 168 h; cell growth inhibition, six or seven days total treatment
Protocol: (§1) IC50 values were calculated and graphed using the model “log(inhibitor) vs. response—Variable slope” included in GraphPad Prism 5 (San Diego, CA). The Ki values were further calculated using the equation below where [L] was the radioligand concentration (1 nM) using in this study. Kd value was 0.332 nM. Ki=IC50/(1+[L]/Kd) c. AR transactivation: Human AR cloned into a CMV vector backbone was used for the transactivation study. HEK-293 cells were plated at 80,000 cells per well of a 24 well plate in DME+5% csFBS. Twenty four hours later, the cells were transfected using Lipofectamine (Invitrogen, Carlsbad, CA) with 0.25 μg GRE-LUC, 0.01 μg CMV-LUC (renilla luciferase) and 25 ng of the AR in OPTIMEM medium. The cells were treated 24 hrs after transfection with various ligands (10^−12 to 10^−5 M final concentrations) and luciferase assay were performed 48 hours after transfection. Firefly values were normalized to renilla luciferase values and the values were represented as relative light units (RLU). Agonist and antagonist assays for the test article were performed in the absence and in the combination with 0.1 nM R1881, respectively. Data were represented as EC50 (for agonists) and IC50 (for antagonists) obtained from four parameter logistics curve. Cell culture and proliferation assays: LNCaP, PC-3, 22RV1, MCF-7, HT-29, and HCT-116 cells were procured from American Type Culture Collection (ATCC). Cells were cultured in medium recommended by the ATCC. Cell culture medium was obtained from Fisher scientific (Waltham, MA) and serum was obtained from Hyclone (San Angelo, TX).
Cells were plated at varying density in the respective growth medium in 96 well plates. […] The number of viable 22RV1 and HT-29 cells was measured using CellTiter Glo assay (CTG, Promega, Madison, WI) after three days of treatment. The other types of cancer cells were re-treated at three or four days and the number of viable cells was measured using CTG assay after a total treatment time of six or seven days. […] The number of viable cells is measured using CellTiter Glo assay (CTG, Promega, Madison, WI) or similar. […]

Human AR = target: T1, Human AR (Homo sapiens, UniProt P10275); test: AR transactivation (antagonist mode, GRE-LUC luciferase in HEK-293 cells); conditions: in combination with 0.1 nM R1881, read-out: AR Ant. IC50
T1 construct: expressed in transfected cells; host or cells: HEK-293
T1 sequence (P10275 1-920): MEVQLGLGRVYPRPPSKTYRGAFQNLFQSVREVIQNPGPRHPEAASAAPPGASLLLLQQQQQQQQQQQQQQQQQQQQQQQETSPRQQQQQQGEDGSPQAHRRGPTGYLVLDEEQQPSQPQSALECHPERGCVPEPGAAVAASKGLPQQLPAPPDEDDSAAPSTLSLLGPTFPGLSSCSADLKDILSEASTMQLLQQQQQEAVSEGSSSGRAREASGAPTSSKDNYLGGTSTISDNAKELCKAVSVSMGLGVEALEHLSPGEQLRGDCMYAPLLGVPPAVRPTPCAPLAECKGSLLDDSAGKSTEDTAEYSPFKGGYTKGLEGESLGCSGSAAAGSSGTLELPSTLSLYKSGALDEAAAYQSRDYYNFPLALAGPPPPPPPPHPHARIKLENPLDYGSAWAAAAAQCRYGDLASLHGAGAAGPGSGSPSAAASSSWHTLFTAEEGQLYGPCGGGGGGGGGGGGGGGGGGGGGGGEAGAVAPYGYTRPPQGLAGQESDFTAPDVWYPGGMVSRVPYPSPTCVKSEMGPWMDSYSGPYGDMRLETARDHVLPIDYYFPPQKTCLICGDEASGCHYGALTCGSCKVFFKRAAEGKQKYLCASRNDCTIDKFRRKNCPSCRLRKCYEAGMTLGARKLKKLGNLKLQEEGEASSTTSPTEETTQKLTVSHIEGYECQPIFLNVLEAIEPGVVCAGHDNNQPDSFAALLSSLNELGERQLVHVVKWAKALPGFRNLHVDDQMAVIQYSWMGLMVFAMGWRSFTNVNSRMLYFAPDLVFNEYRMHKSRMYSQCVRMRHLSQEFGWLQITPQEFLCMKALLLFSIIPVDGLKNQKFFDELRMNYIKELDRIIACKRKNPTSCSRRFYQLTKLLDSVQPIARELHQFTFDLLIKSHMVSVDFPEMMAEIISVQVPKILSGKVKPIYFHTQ
Protocol: as §1

HCT-116 cells = test: Cell proliferation assay (CellTiter Glo), HCT-116; conditions: Homo sapiens, HCT-116, 168 h, read-out: HCT-116 IC50
Protocol: as §1
(§2) Cells were plated at varying density in the respective growth medium in 96 well plates. 24 hr later, cells were treated, in triplicate or quadruplicate, with test articles prepared in a range of concentrations by series dilution of DMSO stock solutions in growth medium and incubated for three to seven days. The number of viable 22RV1 and HT-29 cells was measured using CellTiter Glo assay (CTG, Promega, Madison, WI) after three days of treatment. The other types of cancer cells were re-treated at three or four days and the number of viable cells was measured using CTG assay after a total treatment time of six or seven days. Cell viability data were plotted using GraphPad Prism (GraphPad Software, Inc., San Diego, CA). In addition, a nonlinear regression model with a sigmoidal dose response and variable slope within GraphPad Prism was used to calculate the IC50 value of individual test articles. Additional cell proliferation assays: Other cancer cell lines are tested in a cell proliferation assay. For example, SK-OV-3 or OVCAR3 ovarian cancer cells are tested. […] The number of viable cells is measured using CellTiter Glo assay (CTG, Promega, Madison, WI) or similar. […]

PC-3 cells = test: Cell proliferation assay (CellTiter Glo), PC-3; conditions: Homo sapiens, PC-3, 168 h, read-out: PC-3 IC50
Protocol: as §1, §2

LNCaP cells = test: Cell proliferation assay (CellTiter Glo), LNCaP; conditions: Homo sapiens, 168 h, read-out: LNCaP IC50
Protocol: as §1
Cells were plated at varying density in the respective growth medium in 96 well plates. 24 hr later, cells were treated, in triplicate or quadruplicate, with test articles prepared in a range of concentrations by series dilution of DMSO stock solutions in growth medium and incubated for three to seven days. The number of viable 22RV1 and HT-29 cells was measured using CellTiter Glo assay (CTG, Promega, Madison, WI) after three days of treatment. The other types of cancer cells were re-treated at three or four days and the number of viable cells was measured using CTG assay after a total treatment time of six or seven days. Cell viability data were plotted using GraphPad Prism (GraphPad Software, Inc., San Diego, CA). In addition, a nonlinear regression model with a sigmoidal dose response and variable slope within GraphPad Prism was used to calculate the IC50 value of individual test articles. Additional cell proliferation assays: Other cancer cell lines are tested in a cell proliferation assay. For example, SK-OV-3 or OVCAR3 ovarian cancer cells are tested. Cells are cultured in medium recommended by the supplier (e.g., ATCC or JCRB Cell Bank), at 37° C. in a 5% CO2 environment. For the proliferation assay, cells are plated in the growth medium in 96 well plates. Seeding density is adjusted according to the cell type. 24 hr later, cells are treated, in triplicate or quadruplicate, with test articles prepared in a range of concentrations by series dilution of DMSO stock solutions in growth medium, and typically incubated for three to seven days, with test article-containing medium replaced after three or four days. The number of viable cells is measured using CellTiter Glo assay (CTG, Promega, Madison, WI) or similar. Cell viability data are plotted using GraphPad Prism (GraphPad Software, Inc., San Diego, CA). […]

CN(CCCCCC(=O)N1CCN(C(=O)c2cc(Cc3n[nH]c(=O)c4ccccc34)ccc2F)CC1)CCOc1ccc(C(=O)c2c(-c3ccc(O)cc3)sc3cc(O)ccc23)cc1 [Compound 2.4, 4-(4-fluoro-3-(4-(6-((2-(4-(6-hydroxy-2-(4-hydroxyphenyl)benzo[b]thiophene-3-carbonyl)phenoxy)ethyl)(methyl)amino)hexanoyl)piperazine-1-carbonyl)benzyl)phthalazin-1(2H)-one]
IC50 (MCF-7 cells): 11 µM

C[C@](O)(CS(=O)(=O)c1ccc(NCCCCCC(=O)N2CCN(C(=O)c3cc(Cc4n[nH]c(=O)c5ccccc45)ccc3F)CC2)cc1)C(=O)Nc1ccc(C#N)c(C(F)(F)F)c1 [Compound 1.68, (R)-N-(4-cyano-3-(trifluoromethyl)phenyl)-3-(4-(6-(4-(2-fluoro-5-((4-oxo-3,4-dihydrophthalazin-1-yl)methyl)benzoyl)piperazin-1-yl)-6-oxohexylamino)phenylsulfonyl)-2-hydroxy-2-methylpropanamide]
IC50 (Human AR): 3.3 µM

CC1(C)C(=O)N(c2ccc(C#N)c(C(F)(F)F)c2)C(=S)N1c1ccc(C(=O)NCCCCCCNCc2ccc(-c3[nH]c4cc(F)cc5c4c3CCNC5=O)cc2)c(F)c1 [Compound 1.5, 4-(3-(4-cyano-3-(trifluoromethyl)phenyl)-5,5-dimethyl-4-oxo-2-thioxoimidazolidin-1-yl)-2-fluoro-N-(6-((4-(8-fluoro-1-oxo-2,3,4,6-tetrahydro-1H-azepino[5,4,3-cd]indol-5-yl)benzyl)amino)hexyl)benzamide]
IC50 (Human AR): 0.75 µM

CCC(=C(c1ccc(O)cc1)c1ccc(OCCN2CCN(C(=O)c3cc(Cc4n[nH]c(=O)c5ccccc45)ccc3F)CC2)cc1)c1ccccc1 [Compound 2.14, 4-(4-fluoro-3-(4-(2-(4-(1-(4-hydroxyphenyl)-2-phenylbut-1-enyl)phenoxy)ethyl)piperazine-1-carbonyl)benzyl)pthalazin-1(2H)-one]
IC50 (MCF-7 cells): 9.3 µM

CC1(C)C(=O)N(c2ccc(C#N)c(C(F)(F)F)c2)C(=S)N1c1ccc(C(=O)NCCCCCC(=O)N2CCN(C(=O)c3cc(Cc4n[nH]c(=O)c5ccccc45)ccc3F)CC2)c(F)c1 [Compound 1.1, 4-(3-(4-cyano-3-(trifluoromethyl)phenyl)-5,5-dimethyl-4-oxo-2-thioxoimidazolidin-1-yl)-2-fluoro-N-(6-(4-(2-fluoro-5-((4-oxo-3,4-dihydrophthalazin-1-yl)methyl)benzoyl)piperazin-1-yl)-6-oxohexyl)benzamide]
IC50 (Human AR): 0.033 µM | IC50 (HCT-116 cells): 0.31 µM | IC50 (PC-3 cells): 0.05 µM | IC50 (LNCaP cells): 0.59 µM

C[C@]12CCC(=O)C[C@@H]1CC[C@@H]1[C@@H]2CC[C@]2(C)[C@@H](OCCCCCC(=O)N3CCN(C(=O)c4cc(Cc5n[nH]c(=O)c6ccccc56)ccc4F)CC3)CC[C@@H]12 [Compound 1.2, 4-(3-(4-(6-(((5S,8R,9S,10S,13S,14S,17S)-10,13-dimethyl-3-oxohexadecahydro-1H-cyclopenta[a]phenanthren-17-yl)oxy)hexanoyl)piperazine-1-carbonyl)-4-fluorobenzyl)phthalazin-1(2H)-one]
IC50 (HCT-116 cells): 0.11 µM | IC50 (PC-3 cells): 0.24 µM | IC50 (LNCaP cells): 0.79 µM

O=C(c1ccc(OCCN2CCN(C(=O)c3cc(Cc4n[nH]c(=O)c5ccccc45)ccc3F)CC2)cc1)c1c(-c2ccc(O)cc2)sc2cc(O)ccc12 [Compound 2.13, 4-(4-fluoro-3-(4-(2-(4-(6-hydroxy-2-(4-hydroxyphenyl)benzo[b]thiophene-3-carbonyl)phenoxy)ethyl)piperazine-1-carbonyl)benzyl)phthalazin-1(2H)-one]
IC50 (MCF-7 cells): 3.6 µM
